Assay results as given in patent US9434780B2, “Process for preparing human relaxin-2” (Relaxera Pharma GmbH & Co. KG i.G., priority 2011, dated 2016).
Where no end group is shown, it is not given here.

Columns and labels:
receptor RXFP1 = biological target: T1, receptor RXFP1 (Homo sapiens, UniProt Q9HBX9); assay: displacement of europium-labeled relaxin-2 in HEK-293T cells expressing RXFP1; format: binding; settings: HEK-293T cells expressing natural receptor RXFP1; compared with recombinant human relaxin-2
T1 construct: expressed in transfected cells; host or cells: HEK-293T
T1 sequence (Q9HBX9 1-757): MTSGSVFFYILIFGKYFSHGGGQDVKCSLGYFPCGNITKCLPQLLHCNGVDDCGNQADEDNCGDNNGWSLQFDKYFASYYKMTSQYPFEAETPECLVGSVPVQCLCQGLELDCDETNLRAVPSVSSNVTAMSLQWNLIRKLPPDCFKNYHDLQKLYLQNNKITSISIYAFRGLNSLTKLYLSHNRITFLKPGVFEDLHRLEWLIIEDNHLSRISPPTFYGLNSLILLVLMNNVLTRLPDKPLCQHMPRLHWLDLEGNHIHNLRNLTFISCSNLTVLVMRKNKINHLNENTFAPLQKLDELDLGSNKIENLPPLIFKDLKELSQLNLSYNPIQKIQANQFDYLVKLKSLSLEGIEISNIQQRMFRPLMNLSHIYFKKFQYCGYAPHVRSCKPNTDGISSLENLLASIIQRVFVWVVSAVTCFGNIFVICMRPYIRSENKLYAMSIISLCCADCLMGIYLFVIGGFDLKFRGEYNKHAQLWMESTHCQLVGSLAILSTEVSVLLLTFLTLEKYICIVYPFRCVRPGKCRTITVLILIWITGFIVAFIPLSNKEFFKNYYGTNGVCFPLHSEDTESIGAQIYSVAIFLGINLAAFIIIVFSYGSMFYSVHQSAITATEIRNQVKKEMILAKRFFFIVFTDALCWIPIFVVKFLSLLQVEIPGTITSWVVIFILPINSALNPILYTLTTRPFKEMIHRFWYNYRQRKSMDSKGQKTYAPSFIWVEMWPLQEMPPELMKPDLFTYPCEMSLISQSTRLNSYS

human THP-1 cells = assay: cAMP assay in human THP-1 cells; format: cell-based; settings: FIG. 6, compared with recombinant relaxin-2
cardiac fibroblasts = assay: cell model of myocardial hypertrophy; format: cell-based; settings: inhibition of cardiac fibroblast differentiation into myofibroblasts and of growth factor secretion; compared with recombinant
From the text: In this model, relaxin inhibits the differentiation of cardiac fibroblasts into myofibroblasts and the secretion of growth factors by these cells (Dschietzig et al., 2006).

cell models = assay: studies on cell models (bioassays); format: cell-based; settings: compared with recombinant peptide
[1] = storage stability of lyophilized relaxin-2; format: physicochemical; settings: 4° C., stored for several months, compared with fresh material
Description: The product is lyophilized for storage and stored at −20° C. The high stability of the preparation of highly pure relaxin-2 in lyophilized form at a temperature of 4° C. has been proven by corresponding analytics, in which fresh material was compared with material stored for several months.

Row | Substance | potency in displacing europium-labeled relaxin-2 (receptor RXFP1) | activity in cAMP assay (human THP-1 cells) | potency in cell model of myocardial hypertrophy (cardiac fibroblasts) | effect on cell models (cell models) | stability in lyophilized form [1]
1 | human relaxin-2 [synthetic human relaxin-2] | same potency as recombinant human relaxin-2 | equivalent bioactivities | as potent as recombinant human relaxin-2 | excellent effect, comparable to that of the recombinant peptide | only minor amounts of metabolites appear
2 | recombinant human relaxin-2: recombinantly prepared human relaxin-2 used as comparator (chain 1 QLYSALANKCCHVGCTKRSLARFC; chain 2 DSWMEEVIKLCGRELVRAQIAICGMSTWS; not fully specified; ends and bridges not checked) [reference compound] |  | equivalent bioactivities |  |  | 
3 | AZ02: batch of relaxin-2 prepared by chemical synthesis (chain 1 ELYSALANKCCHVGCTKRSLARFC; chain 2 DSWMEEVIKLCGRELVRAQIAICGMSTWS; non-natural residues) |  | comparable to that of the recombinantly prepared relaxin-2 |  |  | 
